Several values for one entry are separate records, joined by “and”; a condition that tells them apart may be missing. Identical values can stand only once. Inconclusive results and toxic doses are left out.

The test system of the test is CD2F1 mice, L1210 leukemia ip, survival T/C. Kind of test: NCI In Vivo Anticancer Drug Screen. Data for tumor model L1210 Leukemia (intraperitoneal) in CD2F1 (CDF1) mice. The settings on record: higher = longer survival. The method in brief: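 Ratio T/C, where T is the treated-group value and C the vehicle-dosed control value, from mice implanted with a transplantable tumor.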

Where [1] appears, read: endpoint: mean survival time, dose: 100.0 mg/kg/injection, schedule: Q04DX002 (ip), vehicle: saline with Tween-80.
The mark [2] stands for this setting: endpoint: mean survival time, dose: 200.0 mg/kg/injection, schedule: Q04DX002 (ip), vehicle: saline with Tween-80.
[3] abbreviates: endpoint: mean survival time, dose: 400.0 mg/kg/injection, schedule: Q04DX002 (ip), vehicle: saline with Tween-80.
The mark [4] stands for this setting: endpoint: mean survival time, dose: 200.0 mg/kg/injection, schedule: Q01DX009 (ip), vehicle: saline with Tween-80.
Setting [5] is: endpoint: mean survival time, dose: 400.0 mg/kg/injection, schedule: Q01DX009 (ip), vehicle: saline with Tween-80.
Setting [6] is: endpoint: mean survival time, dose: 12.5 mg/kg/injection, schedule: Q01DX005 (ip), vehicle: water.
Setting [7] is: endpoint: mean survival time, dose: 25.0 mg/kg/injection, schedule: Q01DX005 (ip), vehicle: water.
Where [8] appears, read: endpoint: mean survival time, dose: 50.0 mg/kg/injection, schedule: Q01DX005 (ip), vehicle: water.
Setting [9] is: endpoint: mean survival time, dose: 100.0 mg/kg/injection, schedule: Q01DX005 (ip), vehicle: water.
Setting [10] is: endpoint: mean survival time, dose: 12.5 mg/kg/injection, schedule: Q01DX009 (ip), vehicle: saline with Tween-80.
[11] abbreviates: endpoint: mean survival time, dose: 25.0 mg/kg/injection, schedule: Q01DX009 (ip), vehicle: saline with Tween-80.
The mark [12] stands for this setting: endpoint: mean survival time, dose: 50.0 mg/kg/injection, schedule: Q01DX009 (ip), vehicle: saline with Tween-80.
Where [13] appears, read: endpoint: mean survival time, dose: 100.0 mg/kg/injection, schedule: Q01DX009 (ip), vehicle: saline with Tween-80.
The mark [14] stands for this setting: endpoint: mean survival time, dose: 100.0 mg/kg/injection, schedule: Q04DX003 (ip), vehicle: saline with Tween-80.
Where [15] appears, read: endpoint: mean survival time, dose: 200.0 mg/kg/injection, schedule: Q04DX003 (ip), vehicle: saline with Tween-80.
The mark [16] stands for this setting: endpoint: mean survival time, dose: 400.0 mg/kg/injection, schedule: Q04DX003 (ip), vehicle: saline with Tween-80.

Turning to `COc1ccccc1NC(=O)OCC(Cl)(Cl)Cl`, the T/C under setting [1] is 103 % of control, the T/C under setting [2] was 100 % of control and the T/C under setting [3] is 95 % of control.

Turning to `CCN(CC(C)Cl)c1ccc(NC(=O)c2cc(N3CC3)c([N+](=O)[O-])cc2[N+](=O)[O-])cc1` (stereo not drawn), the T/C is, setting by setting: (endpoint: mean survival time, dose: 22.0 mg/kg/injection, schedule: Q01DX001 (ip), vehicle: Klucel (hydroxypropylcellulose) (HPC)) 97 % of control; (endpoint: mean survival time, dose: 44.0 mg/kg/injection, schedule: Q01DX001 (ip), vehicle: Klucel (hydroxypropylcellulose) (HPC)) 97 % of control; (endpoint: mean survival time, dose: 88.0 mg/kg/injection, schedule: Q01DX001 (ip), vehicle: Klucel (hydroxypropylcellulose) (HPC)) 103 % of control.

For the molecule `COc1ccc(NC(=O)Nc2cc(Cl)ccc2Cl)cc1`, the T/C under setting [4] is 88 % of control and the T/C under setting [5] was 100 % of control.

As for `Cc1ccccc1CN1C2=NCCN2C(=O)C2=C1CCN(S(=O)(=O)c1ccc(Cl)c(S(N)(=O)=O)c1)C2`, the T/C by setting is: (endpoint: median survival time, dose: 25.0 mg/kg/injection, schedule: Q01DX009 (ip), vehicle: saline) 95 % of control; (endpoint: median survival time, dose: 50.0 mg/kg/injection, schedule: Q01DX009 (ip), vehicle: saline) 100 % of control; (endpoint: median survival time, dose: 100.0 mg/kg/injection, schedule: Q01DX009 (ip), vehicle: saline) 93 % of control; (endpoint: median survival time, dose: 400.0 mg/kg/injection, schedule: Q01DX009 (ip), vehicle: saline) 88 % of control.

Take `COc1ccc2c(c1)CCC1C(=O)NN=C21` (stereo not drawn): the T/C runs as follows: under setting [1], 103 % of control; under setting [2], 103 % of control; under setting [3], 103 % of control.

For the molecule `N#CCc1[nH]nc2ncnc(N)c12`, the T/C was 100 % of control under setting [6], 100 % of control under setting [7], 105 % of control under setting [8] and 105 % of control under setting [9].

As for `Cc1csc2ncn(C3OC(CO)C(O)C3O)c(=O)c12` (stereo not drawn), the T/C was 110 % of control under setting [10], 101 % of control under setting [11] and 94 % of control under setting [12].

For `CC(Sc1ccccc1)C(=O)OC1C=CCCC1` (stereo not drawn), the T/C under setting [1] was 98 % of control, the T/C under setting [2] is 106 % of control and the T/C under setting [3] was 98 % of control.

Take `COc1ccc(C(C)=O)cc1C=O`: the T/C is, setting by setting: under setting [13], 87 % of control; under setting [14], 97 % of control; under setting [4], 92 % of control; under setting [15], 104 % of control; under setting [5], 90 % of control; under setting [16], 102 % of control.

As to `CCCCCC[Se][Se]CCCCCC`, the T/C is, setting by setting: (endpoint: median survival time, dose: 1.56 mg/kg/injection, schedule: Q01DX009 (ip), vehicle: Klucel (hydroxypropylcellulose) (HPC)) 98 % of control; (endpoint: median survival time, dose: 3.12 mg/kg/injection, schedule: Q01DX009 (ip), vehicle: Klucel (hydroxypropylcellulose) (HPC)) 100 % of control; (endpoint: median survival time, dose: 6.25 mg/kg/injection, schedule: Q01DX009 (ip), vehicle: Klucel (hydroxypropylcellulose) (HPC)) 101 % of control; (endpoint: median survival time, dose: 12.5 mg/kg/injection, schedule: Q01DX009 (ip), vehicle: Klucel (hydroxypropylcellulose) (HPC)) 97 % of control.

Take `CCSCCNC1=C(C)C(=O)C2=C(C1=O)[C@H](COC(N)=O)[C@]1(OC)[C@H]3[C@@H](CN21)N3C` (stereo partly drawn): the T/C (endpoint: mean survival time, dose: 1.5 mg/kg/injection, schedule: Q01DX001 (ip), vehicle: distilled water + Tween-80) is 103 % of control; the T/C (endpoint: mean survival time, dose: 3.0 mg/kg/injection, schedule: Q01DX001 (ip), vehicle: distilled water + Tween-80) is 96 % of control and 103 % of control and 109 % of control; the T/C (endpoint: mean survival time, dose: 6.0 mg/kg/injection, schedule: Q01DX001 (ip), vehicle: distilled water + Tween-80) is 104 % of control and 107 % of control and 108 % of control; the T/C (endpoint: mean survival time, dose: 12.0 mg/kg/injection, schedule: Q01DX001 (ip), vehicle: distilled water + Tween-80) is 115 % of control and 102 % of control and 110 % of control; the T/C (endpoint: mean survival time, dose: 24.0 mg/kg/injection, schedule: Q01DX001 (ip), vehicle: distilled water + Tween-80) was 121 % of control and 124 % of control; the T/C (endpoint: mean survival time, dose: 48.0 mg/kg/injection, schedule: Q01DX001 (ip), vehicle: distilled water + Tween-80) is 115 % of control.

On to `COC1OC(CO)C(n2cnc3c2c(=O)n(C)c(=O)n3C)C=C1NC(C)=O` (stereo not drawn), for which the T/C reads like this: (endpoint: mean survival time, dose: 12.5 mg/kg/injection, schedule: Q01DX005 (ip), vehicle: distilled water + Tween-80) 100 % of control; under setting [6], 88 % of control; (endpoint: mean survival time, dose: 25.0 mg/kg/injection, schedule: Q01DX005 (ip), vehicle: distilled water + Tween-80) 96 % of control; under setting [7], 96 % of control; under setting [8], 92 % of control; (endpoint: mean survival time, dose: 100.0 mg/kg/injection, schedule: Q01DX005 (ip), vehicle: distilled water + Tween-80) 92 % of control. Also, the T/C under setting [9] was 103 % of control; the T/C (endpoint: mean survival time, dose: 200.0 mg/kg/injection, schedule: Q01DX005 (ip), vehicle: distilled water + Tween-80) was 100 % of control; the T/C (endpoint: mean survival time, dose: 200.0 mg/kg/injection, schedule: Q01DX005 (ip), vehicle: water) was 96 % of control.

Regarding `Cn1c2nc(=O)n(-c3ccccc3)c(=O)c-2nc2c1CCCC2`, the T/C is 100 % of control (endpoint: mean survival time, dose: 3.12 mg/kg/injection, schedule: Q01DX009 (ip), vehicle: saline with Tween-80); 100 % of control (endpoint: mean survival time, dose: 6.25 mg/kg/injection, schedule: Q01DX009 (ip), vehicle: saline with Tween-80); 98 % of control under setting [10]; 101 % of control under setting [11]; 100 % of control under setting [12]; 106 % of control under setting [13].

In the case of `c1cc[c]([Sb]([c]2ccccc2)[c]2ccccc2)cc1`, the T/C is, setting by setting: (endpoint: mean survival time, dose: 20.0 mg/kg/injection, schedule: Q04DX003 (ip), vehicle: saline sonified) 97 % of control; (endpoint: mean survival time, dose: 40.0 mg/kg/injection, schedule: Q04DX003 (ip), vehicle: saline sonified) 94 % of control.

Consider `C1CNC(SCCOCCOCCSC2=NCCN2)=N1`, for which the T/C (endpoint: mean survival time, dose: 12.5 mg/kg/injection, schedule: Q01DX009 (ip), vehicle: saline) was 97 % of control; the T/C (endpoint: mean survival time, dose: 25.0 mg/kg/injection, schedule: Q01DX009 (ip), vehicle: saline) was 97 % of control; the T/C (endpoint: mean survival time, dose: 50.0 mg/kg/injection, schedule: Q01DX009 (ip), vehicle: saline) was 100 % of control.

As to `COc1cccc2c1C(=O)c1c(O)c3c(c(O)c1C2=O)C[C@@](O)(C(=O)COC(=O)Cc1cccc2ccccc12)C[C@@H]3OC1CC(N)C(O)C(C)O1` (stereo partly drawn), the T/C reads like this: (endpoint: mean survival time, dose: 0.5 mg/kg/injection, schedule: Q01DX009 (ip), vehicle: saline with Tween-80) 118 % of control; (endpoint: mean survival time, dose: 1.0 mg/kg/injection, schedule: Q01DX001 (ip), vehicle: other) 116 % of control; (endpoint: mean survival time, dose: 2.5 mg/kg/injection, schedule: Q01DX001 (ip), vehicle: saline with Tween-80) 117 % of control; (endpoint: mean survival time, dose: 5.0 mg/kg/injection, schedule: Q04DX003 (ip), vehicle: other) 152 % of control; (endpoint: mean survival time, dose: 8.0 mg/kg/injection, schedule: Q01DX009 (ip), vehicle: saline with Tween-80) 122 % of control; (endpoint: mean survival time, dose: 10.0 mg/kg/injection, schedule: Q04DX003 (ip), vehicle: saline with Tween-80) 151 % of control. In addition, the T/C (endpoint: mean survival time, dose: 16.0 mg/kg/injection, schedule: Q01DX009 (ip), vehicle: saline with Tween-80) is 88 % of control and the T/C (endpoint: mean survival time, dose: 32.0 mg/kg/injection, schedule: Q01DX001 (ip), vehicle: other) is 90 % of control.

As to `COc1ccc(Cl)cc1C(c1cc(Cl)ccc1OC)C(Cl)(Cl)Cl`, the T/C is 97 % of control under setting [13]; 103 % of control under setting [14]; 109 % of control under setting [4]; 103 % of control under setting [15]; 104 % of control under setting [5]; 101 % of control under setting [16].

As for `CNC(=O)c1ccc[n+](CC(=O)NCc2ccccc2)c1`, the T/C (endpoint: mean survival time, dose: 100.0 mg/kg/injection, schedule: Q04DX003 (ip), vehicle: saline) was 107 % of control.

Consider `NNC(=O)OCc1ccccc1`, for which, under setting [1], the T/C was 100 % of control.

As for `O=c1[nH]cc(C(O)Cc2ccccc2)c(=O)[nH]1` (stereo not drawn), the T/C by setting is: under setting [13], 97 % of control; under setting [14], 104 % of control; under setting [4], 100 % of control; under setting [15], 94 % of control; under setting [5], 97 % of control; under setting [16], 98 % of control.

These data come from PubChem BioAssay AID256 (DTP/NCI, 2004).
